Reference: BindingDB's records for doi:10.1021/acs.jmedchem.9b00607 (National Institute On Drug Abuse-Intramural Research Program, 2019)

Target: D(3) dopamine receptor (Homo sapiens, UniProt P35462)
Assay: Agonist activity at human D3 receptor expressed in CHO cells assessed as stimulation of […] mitogenesis

D(3) dopamine receptor, sequence (P35462 as listed by the source): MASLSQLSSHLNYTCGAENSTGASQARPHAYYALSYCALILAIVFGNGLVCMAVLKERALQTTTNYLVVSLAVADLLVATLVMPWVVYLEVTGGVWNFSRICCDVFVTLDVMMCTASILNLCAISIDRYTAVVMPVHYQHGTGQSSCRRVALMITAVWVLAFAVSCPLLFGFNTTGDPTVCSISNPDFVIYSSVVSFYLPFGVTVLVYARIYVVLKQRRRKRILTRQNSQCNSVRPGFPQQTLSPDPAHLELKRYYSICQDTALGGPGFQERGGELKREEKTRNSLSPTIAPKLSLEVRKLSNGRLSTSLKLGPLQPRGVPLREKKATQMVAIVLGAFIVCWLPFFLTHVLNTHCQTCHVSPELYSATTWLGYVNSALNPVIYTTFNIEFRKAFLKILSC

Row | EC50 | Compound
1 | > 3.2 µM | CCc1cc(Cl)c(OC)c(N2CCN(C[C@H](O)CCNC(=O)c3cc4ccccc4[nH]3)CC2)c1
2 | > 6.8 µM | CCc1cc(Cl)c(OC)c(N2CCN(C[C@@H](O)CCNC(=O)c3cc4ccccc4[nH]3)CC2)c1
